In this assay the test system is SUDHL4 cells. The assay is described as follows: Alamar Blue cytotoxicity study. In kind it is cell-based, human. To be noted: for IC50: Homo sapiens; for Combination Index (Chou-Talalay): 120 h. How it is done: Cells were incubated with 0.25, 0.5, 1, 2.5 or 5 μg/ml of Humalutin in cell culture flasks and incubated at 37° C./5% CO2. After 18-20 hours cells were washed and resuspended in fresh medium. Cell bound activity after washing was measured using a calibrated gamma detector (Cobra II auto-gamma detector, Packard Instrument Company, Meriden, Conn., USA). Cell concentration and viability was also measured after washing using Guava ViaCount Cell Dispersal Reagent for Flow Cytometry (Merck GaA, Darmstadt, Germany) and measured in a Guava EasyCyte 12HT (Merck KGaA, Darmstadt, Germany) to determine how well the cells survived the incubation. Cells were seeded in 96 well plates. […]
Cells were treated with either Humalutin, venetoclax or a combination of both and seeded into 96 well-plates. At each time point after treatment, cells were incubated with Alamar Blue (Thermo Fisher, DALL1100) for 4 hours and fluorescence measurements were performed using a multiplate reader Fluoroskan ascent FL to assess cell proliferation and viability. All experiments were done in duplicates using 2 samples in each experiment. Data were normalized to the untreated controls.
Cells were incubated with either 0, 0.5 μg/ml or 1 μg/ml Humalutin and the same procedure as described before for treatment with Humalutin alone and venetoclax alone was followed.
The Chou-Talalay model was used for synergy calculations using the Compusyn software. R (goodness of fit) was calculated for the individual treatments and should be over 0.90 in in vitro culture experiments in order to use with confidence the calculated combination index (CI). The CI is an indication of synergy: 0-0.9 is considered synergy. Synergysm grading was used as described in WO2006004917A2.
Cells were incubated with 0.25, 0.5, 1, 2.5 or 5 μg/ml of Humalutin in cell culture flasks and incubated at 37° C./5% CO2. After 18-20 hours cells were washed and resuspended in fresh medium. Cell bound activity after washing was measured using a calibrated gamma detector (Cobra II auto-gamma detector, Packard Instrument Company, Meriden, Conn., USA). Cell concentration and viability were also measured after washing using Guava ViaCount Cell Dispersal Reagent for Flow Cytometry (Merck GaA, Darmstadt, Germany) and measured in a Guava EasyCyte 12HT (Merck KGaA, Darmstadt, Germany) to determine how well the cells survived the incubation. Cells were seeded in 96 well plates. Alamar blue viability measurements were performed 120 h after seeding.
Cells were incubated with either 0 (control), 0.5 μg/ml or 1 μg/ml Humalutin for 18 to 20 hours. Cells were then washed and resuspended in fresh medium.
Background: The colour change of resazurin is a common sign of viable cells or microbes.

One molecule from patent publication US20210106703A1, “RADIOIMMUNOCONJUGATES IN COMBINATION WITH OTHER DRUGS AS TREATMENT AGAINST NHL” (Nordic Nanovector ASA, priority 2017, published 2021) can be followed below.

Each structure is given as a SMILES string. Read-outs that look alike come from different tables or passages of the source.

Consider `CC1(C)CCC(CN2CCN(c3ccc(C(=O)NS(=O)(=O)c4ccc(NCC5CCOCC5)c([N+](=O)[O-])c4)c(Oc4cnc5[nH]ccc5c4)c3)CC2)=C(c2ccc(Cl)cc2)C1` [venetoclax], for which the IC50 (usually the concentration that gives 50% inhibition) was 2.42 µM (SU-DHL-4, read-out: IC50 at 120 h, SUDHL-4, 120 h incubation after seeding) and 3.66 µM (SU-DHL-4, SUDHL4, 72 h incubation after seeding, read-out: IC50). Besides, the “Combination Index (Chou-Talalay)” value (SUDHL-4, drug 10 μM + Humalutin 0.5 μg/ml) worked out at 2.43; the “Combination Index (Chou-Talalay)” value (SUDHL-4, drug 10 μM + Humalutin 1 μg/ml) stood at 0.09; the “Combination Index (Chou-Talalay)” value (SUDHL-4, drug 40 μM + Humalutin 0.5 μg/ml) is recorded as 3.77; the “Combination Index (Chou-Talalay)” value (SUDHL-4, drug 40 μM + Humalutin 1 μg/ml) was determined as 0.11; the “Combination Index (Chou-Talalay)” value (SUDHL-4, drug 80 μM + Humalutin 0.5 μg/ml) was found to be 0.50; the “Combination Index (Chou-Talalay)” value (SUDHL-4, drug 80 μM + Humalutin 1 μg/ml) is given as 0.06. Moreover, the “Combination Index (Chou-Talalay)” value reads like this: (SUDHL-4, drug 100 μM + Humalutin 0.5 μg/ml) 0.83; (SUDHL-4, drug 100 μM + Humalutin 1 μg/ml) 0.02; (SUDHL-4, venetoclax 0.25 + Humalutin 0.5 μg/ml) 0.01; (SUDHL-4, venetoclax 0.25 + Humalutin 1 μg/ml) 0.06; (SUDHL-4, venetoclax 0.5 + Humalutin 0.5 μg/ml) 0.003; (SUDHL-4, venetoclax 0.5 + Humalutin 1 μg/ml) 0.01. For the same molecule, the “Combination Index (Chou-Talalay)” value is 0.01 (SUDHL-4, venetoclax 1 + Humalutin 0.5 μg/ml); 0.09 (SUDHL-4, venetoclax 1 + Humalutin 1 μg/ml); 0.02 (SUDHL-4, venetoclax 2.5 + Humalutin 0.5 μg/ml); 0.12 (SUDHL-4, venetoclax 2.5 + Humalutin 1 μg/ml).
